This note sets out measurements from patent publication US9765035B2 (priority 2013, dated 2017).

The target in this assay is T1, Human CARM1 (PRMT4) (Homo sapiens, UniProt Q86X55).
T1 construct: Flag-CARM1-His; made in house; host or cells: HEK 293F cells (BacMam baculovirus)
T1 sequence (Q86X55 1-585 isoform Q86X55-1): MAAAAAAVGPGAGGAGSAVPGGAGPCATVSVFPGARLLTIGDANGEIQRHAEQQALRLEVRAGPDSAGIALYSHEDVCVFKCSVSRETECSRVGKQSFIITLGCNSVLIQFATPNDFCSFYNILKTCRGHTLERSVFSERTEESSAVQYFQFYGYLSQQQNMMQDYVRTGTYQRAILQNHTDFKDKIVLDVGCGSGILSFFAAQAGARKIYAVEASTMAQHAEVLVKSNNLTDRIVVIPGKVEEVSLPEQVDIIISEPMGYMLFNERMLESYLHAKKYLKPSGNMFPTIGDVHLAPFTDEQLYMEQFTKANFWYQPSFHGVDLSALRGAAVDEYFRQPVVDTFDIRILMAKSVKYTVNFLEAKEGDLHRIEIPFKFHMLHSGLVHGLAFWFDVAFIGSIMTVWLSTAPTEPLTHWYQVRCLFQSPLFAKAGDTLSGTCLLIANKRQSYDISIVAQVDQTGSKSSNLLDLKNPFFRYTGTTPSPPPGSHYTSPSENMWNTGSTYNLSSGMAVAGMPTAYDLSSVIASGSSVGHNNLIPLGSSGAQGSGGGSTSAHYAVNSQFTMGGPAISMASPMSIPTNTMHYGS
Kind of assay: CARM1 Biochemical Assay. The text has this:
General Materials. S-adenosylmethionine (SAM), S-adenosylhomocysteine (SAH), bicine, Tween20, dimethylsulfoxide (DMSO), bovine skin gelatin (BSG), sodium butyrate and Tris(2-carboxyethyl)phosphine hydrochloride solution (TCEP) were purchased from Sigma-Aldrich at the highest level of purity possible. ^3H-SAM was purchase from American Radiolabeled Chemicals with a specific activity of 80 Ci/mmol. 384-well streptavidin Flashplates were purchased from PerkinElmer.
Substrates. Peptide representative of human histone H3 residues 16-30 was synthesized with an N-terminal linker-affinity tag motif and a C-terminal amide cap by 21st Century Biochemicals. The peptide was purified by high-performance liquid chromatography (HPLC) to greater than 95% purity and confirmed by liquid chromatography mass spectrometry (LC-MS). The sequence was Biot-Ahx-[…]-amide and contained a monomethylated arginine at position 26 (SEQ ID NO.: 14).
Molecular Biology: Human CARM1 (PRMT4) (NM_199141.1) transcript clone was amplified from an HEK 293 cDNA library, incorporating a flanking 5′ sequence encoding a FLAG tag ([…]) (SEQ ID NO.:6) fused directly to Ala 2 of CARM1 and 3′ sequence encoding a hexa His sequence ([…]) (SEQ ID NO.: 15) fused directly to Ser 608. The gene sequence encoding isoform1 containing a deletion of amino acids 539-561 was amplified subsequently and subcloned into pFastBacMam (Viva Biotech).
Protein Expression. Recombinant baculovirus were generated according to Bac-to-Bac kit instructions (Life Technologies). […] Infections were carried out at 37° C. for 48 hours, harvested by centrifugation, and stored at −80° C. for purification.
Protein Purification. […] Column was washed with 500 mM NaCl in buffer A and Flag-CARM1-His was eluted with 200 ug/ml FLAG peptide in buffer A. Pooled fractions were dialyzed in 20 mM Tris, 150 mM NaCl, 5% glycerol and 1 mM DTT, pH 7.8. The purity of recovered protein was 94.
General Procedure for CARM1 Enzyme Assays on Peptide Substrates. The assays were all performed in a buffer consisting of 20 mM Bicine (pH=7.6), 1 mM TCEP, 0.005% BSG, and 0.002% Tween 20, prepared on the day of use. Compounds in 100% DMSO (1 ul) were spotted into a polypropylene 384-well V-bottom plates (Greiner) using a Platemate Plus outfitted with a 384-channel head (Thermo Scientific). DMSO (1 ul) was added to Columns 11, 12, 23, 24, rows A-H for the maximum signal control and 1 ul of SAH, a known product and inhibitor of CARM1, was added to columns 11, 12, 23, 24, rows I-P for the minimum signal control. A cocktail (40 ul) containing the CARM1 enzyme was added by Multidrop Combi (Thermo-Fisher). The compounds were allowed to incubate with CARM1 for 30 min at room temperature, then a cocktail (10 ul) containing ^3H-SAM and peptide was added to initiate the reaction (final volume=51 ul). The final concentrations of the components were as follows: CARM1 was 0.25 nM, ^3H-SAM was 30 nM, peptide was 250 nM, SAH in the minimum signal control wells was 1 mM, and the DMSO concentration was 2%. The assays were stopped by the addition of non-radiolabeled SAM (10 ul) to a final concentration of 300 uM, which dilutes the ^3H-SAM to a level where its incorporation into the peptide substrate is no longer detectable. 50 ul of the reaction in the 384-well polypropylene plate was then transferred to a 384-well Flashplate and the biotinylated peptides were allowed to bind to the streptavidin surface for at least 1 hour before being washed once with 0.1% Tween20 in a Biotek EL×405 plate washer. The plates were then read in a PerkinElmer TopCount plate reader to measure the quantity of ^3H-labeled peptide bound to the Flashplate surface, measured as disintegrations per minute (dpm) or alternatively, referred to as counts per minute (cpm).
Where dpm=disintegrations per minute, cmpd=signal in assay well, and min and max are the respective minimum and maximum signal controls. […]

Setting [1] is: PRMT4 IC50, biochemical evaluation, CARM1 (PRMT4), peptide substrate.
The mark [2] stands for this setting: PRMT4 biochemical evaluation (numerical), single experiment or average of multiple experiments.

pIC50: −log10 of the molar value.

With `CNCCN(C)Cc1n[nH]c2ccc(Oc3ccccc3OC(C)C)cc12` [Compound 56], the pIC50 runs as follows: under setting [1], 6.00 to 7.00; under setting [2], under 5.00.
As for `CNCCN(C)Cc1n[nH]c2ccc(Oc3ccc(Cl)cc3)cc12` [Compound 57], the pIC50 is 6.00 to 7.00 under setting [1] and 6.48 under setting [2].
On the same counts, the results for `CNCCN(C)Cc1n[nH]c2ccc(OC3CCN(C(C)=O)CC3)cc12` [Compound 58, 1-(4-((3-((methyl(2-(methylamino)ethyl)amino)methyl)-1H-indazol-5-yl)oxy)piperidin-1-yl)ethan-1-one] are 5.52 to 6.00 and 6.61.
In the case of `CNCCN(C)Cc1n[nH]c2ccc(Oc3ccc(OC)cc3)cc12` [Compound 59], the pIC50 by setting is: under setting [1], over 7.00; under setting [2], 6.50.
The matching figures for `CNCCN(C)Cc1n[nH]c2ccc(Oc3ccccc3C)cc12` [Compound 60]: 6.00 to 7.00 and 5.75.
On the same counts, the results for `CNCCN(C)Cc1n[nH]c2ccc(Oc3ccc(OC(C)C)cc3)cc12` [Compound 61] are 5.00 to 5.52 and 7.06.
The matching figures for `CNCCN(C)Cc1nn(C(C)C)c2ccc(OCc3ccc(C#N)cc3)cc12` [Compound 62]: 5.52 to 6.00 and 6.44.
As to `CCOc1ccc2[nH]nc(CN(C)CCNC)c2c1` [Compound 63], the pIC50 is, setting by setting: under setting [1], 5.00 to 5.52; under setting [2], 5.38.
The matching figures for `CNCCN(C)Cc1n[nH]c2ccc(OC(C)C)cc12` [Compound 64]: 5.52 to 6.00 and 5.71.
On the same counts, the results for `CCCOc1ccc2[nH]nc(CN(C)CCNC)c2c1` [Compound 65] are 6.00 to 7.00 and 5.31.
For the molecule `CNCCN(C)Cc1n[nH]c2ccc(OCc3cccc(C(N)=O)c3)cc12` [Compound 66], the pIC50 is 5.52 to 6.00 under setting [1] and 5.72 under setting [2].
On the same counts, the results for `CNCCN(C)Cc1n[nH]c2ccc(Oc3cccc(OC(C)C)c3)cc12` [Compound 67] are 5.00 to 5.52 and 6.17.
As for `CNCCN(C)Cc1n[nH]c2ccc(OCc3ccc(C(F)(F)F)cc3)cc12` [Compound 68], the pIC50 runs as follows: under setting [1], 5.00 to 5.52; under setting [2], 5.77.
The matching figures for `CNCCN(C)Cc1n[nH]c2ccc(OCc3ccc(C(N)=O)cc3)cc12` [Compound 69]: 5.00 to 5.52 and 5.38.
On the same counts, the results for `CNCCN(C)Cc1n[nH]c2ccc(OCc3cccc(NC(C)=O)c3)cc12` [Compound 70] are 6.00 to 7.00 and 5.43.
On the same counts, the results for `CNCCN(C)Cc1n[nH]c2ccc(OCc3ccc(C(C)(C)C)cc3)cc12` [Compound 71] are 5.00 to 5.52 and 5.42.
As to `CNCCN(C)Cc1n[nH]c2ccc(OCc3cccc(C(F)(F)F)c3)cc12` [Compound 72], the pIC50 is 6.00 to 7.00 under setting [1] and 6.05 under setting [2].
The matching figures for `CNCCN(C)Cc1n[nH]c2ccc(OCc3cccc(C(C)=O)c3)cc12` [Compound 73]: 6.00 to 7.00 and 5.34.
The matching figures for `CNCCN(C)Cc1n[nH]c2ccc(OCc3cccc(C(C)(C)C)c3)cc12` [Compound 74]: 6.00 to 7.00 and 6.52.
